This assay has as its system guinea pig hearts. Put plainly: ECG measurement of QT interval prolongation in isolated guinea pig hearts (Langendorff perfusion). The arrangement: species or system guinea pig (male Duncin-Hartley). The note with it: for EC20: Cavia porcellus, 0.25 h, isolated guinea pig heart, Langendorff perfusion, 37° C, cumulative administration at 15 min intervals into the perfusate, ED20% by linear regression of log dose, read-out: ED20% (dose at which there is a 20% increase in the QT interval from the initial figure); for Relative effect ED20% (D-sotalol)/ED20% (Ex.): ratio relative to D-sotalol, QT interval, guinea pig heart. From the text:
In these the cardiac cycle is divided into systole (contraction of the heart), also called QT interval, and diastole (relaxation of the heart with filling of the ventricles). Repolarization inhibitors increase the QT interval with a negligible effect on the atrioventricular conduction time (PQ interval) and the period of isometric contraction (QRS time, from the start of systole until the semilunar valves open) (see Pschyrembel, 254th edition, 1982).
The activity of the compounds according to the invention as repolarization inhibitors can be investigated in animal experiments by ECG measurements on, for example, guinea pig hearts (see Basic Res. Cardiol. 82 (1987) 437; J. Pharmacol. Methods 21 (1989) 195). Used to compare the activities of a number of substances is, for example, the dose of an agent at which there is a 20% increase in the QT interval from the initial figure (ED20%).This is done by plotting the logarithm of the doses of the particular substances against the experimentally found relative changes in the QT interval, and using linear regression to determine the equation of a straight line from which the ED20% can be calculated.
This method was used to determine the ED20% values for the compounds of Examples 2 and 3 (see Table). D-sotalol was used as comparative substance.
The experimental animals were male Duncin-Hartley guinea pigs with a body weight of 300 to 350 g. 30 min after administration of 1250 I.U. of heparin/kg of body weight into the abdominal cavity, the animals were sacrificed by a blow to the back of the neck. After the common carotid arteries had been cut for exsanguination, the thoracic cavity was opened, and the heart was dissected out and attached to a perfusion apparatus. The Langendorff perfusion was carried out with Krebs-Henseleit solution (NaCl 6896 mg/l; KCl 350 mg/l; MgSO4 285 mg/l; CaCl2 370 mg/l; KH2 PO4 161 mg/l; NaHCO3 2090 mg/l; glucose 2000 mg/l) enriched with oxygen and heated to 37° C. The perfusion volume per unit time was adjusted to 4 to 6 ml/min for a total volume of 100 ml, and the perfusion pressure was adjusted to 60 to 70 mm Hg. Circulating perfusion was carried out after equilibration for 30 min.
The ECG measurements were made via two silver electrodes attached to the surface of the heart in the upper region of the left coronary artery and on the rear of the heart at the level of the valve plane. The PQ and QT intervals, the QRS time and the heart rate were measured.
The substance was administered cumulatively at intervals of 15 min into the perfusate.

Structures are written as SMILES. Structures can show the parent of a compound that is named as a salt.

For `CC(C)NCC(O)c1ccc(NS(C)(=O)=O)cc1` [D-sotalol, 4'-[1-hydroxy-2-(isopropylamino)ethyl]methanesulfonanilide, reference compound], the EC20 was 16 µM.
Regarding `Cc1ccccc1C=CC(=O)Nc1cc(C)c(OCCN2CCCC2)c(C)c1` [Example 2, [3',5'-Dimethyl-4'-(2-(N-pyrrolidinyl)ethoxy)]-(2-methylphenyl)acrylanilidefumarate], the EC20 came out at 0.5 µM and the “Relative effect ED20% (D-sotalol)/ED20% (Ex.)” value worked out at 32.
On the same counts, the results for `Cc1ccccc1CCC(=O)Nc1cc(C)c(OCCN2CCCC2)c(C)c1` [Example 3, [3',5'-Dimethyl-4'-(2-(N-pyrrolidinyl)ethoxy)]-3-(2-methylphenyl)propionanilide fumarate] are 0.31 µM and 51.

Values taken from US5260330A, “Substituted anilides” (BASF Aktiengesellschaft, priority 1990, dated 1993).
